Assays:
[1] = target: T1, IDH1^R132C (Homo sapiens, UniProt O75874, R132C); assay: NADPH depletion assay, IDH1 R132C; assay type: biochemical
T1 construct: purchased not specified
Method: (§1) IDH mutated enzyme activity converting alpha-ketoglutarate to 2-hydroxyglutaric acid is measured using a NADPH depletion assay. In the assay the remaining cofactor is measured at the end of the reaction with the addition of a catalytic excess of diaphorase and resazurin, to generate a fluorescent signal in proportion to the amount of NADPH remaining. IDH1 WT enzyme as well as mutated isoforms IDH1^R132H, IDH1^R132C, and IDH^2R172K enzymes are commercially available proteins (see e.g. Sino Biological, Abcam, Active Motif or Creative BioMart).
(§2) IDH1^R132H homodimer enzyme are diluted to 8 nM, in 10 μL of Assay Buffer (150 mM NaCl, 50 mM Tris-HCl pH 7.6, 10 mM MgCl2, 0.001% Triton X-100, 4 mM β-mercaptoethanol); 0.2 uL of test compound, previously serially diluted 1 to 3, >10 experimental points from 1 mM in DMSO, is added and the mixture is incubated for 15 minutes at room temperature. The reaction is started with the addition of 10 μL of Substrate Mix (12 uM NADPH, 3.4 mM alpha-ketoglutarate in Assay Buffer) and the mixture is incubated for 60 minutes at room temperature. The reaction is terminated with the addition of 5 μl of Detection Buffer (100 μg/mL diaphorase, 30 μM resazurin, in IX Assay Buffer), and is incubated for 15 minute before reading on a ViewLux as platereader at Ex544/Em590.
Compounds are assayed for their activity against IDH1^R132C following the same assay as above with the following modifications: IDH1^R132C and alpha-ketoglutarate final concentrations in the Assay Buffer is 2 nM and 0.14 mM, respectively.

[2] = target: T2, IDH1^R132H homodimer enzyme (Homo sapiens, UniProt O75874, R132H); assay: NADPH depletion assay, IDH1 R132H; assay type: biochemical
T2 construct: purchased not specified
Method: as §1, §2

T2 sequence (O75874 whole entry R132H): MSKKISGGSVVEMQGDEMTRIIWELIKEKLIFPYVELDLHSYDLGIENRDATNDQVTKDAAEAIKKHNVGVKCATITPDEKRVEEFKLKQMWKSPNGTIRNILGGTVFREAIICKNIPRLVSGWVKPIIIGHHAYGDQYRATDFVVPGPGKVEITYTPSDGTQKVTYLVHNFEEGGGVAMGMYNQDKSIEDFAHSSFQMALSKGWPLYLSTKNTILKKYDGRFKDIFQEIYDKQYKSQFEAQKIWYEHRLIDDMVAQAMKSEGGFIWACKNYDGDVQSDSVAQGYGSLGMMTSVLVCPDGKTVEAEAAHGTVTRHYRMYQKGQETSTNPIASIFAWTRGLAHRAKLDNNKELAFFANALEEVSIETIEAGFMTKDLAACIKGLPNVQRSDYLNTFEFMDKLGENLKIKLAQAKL
T1 sequence (O75874 whole entry R132C): as the sequence (O75874 whole entry R132H) above, with H132C counted along it

IC50 [1] [nM]	IC50 [2] [nM]	Structure (SMILES)
715	713	C[C@H](Nc1ncc2ccc(=O)n(Cc3c(F)cccc3F)c2n1)c1ccc(CO)cc1 [cpd 92, 8-(2,6-difluorobenzyl)-2-({(1S)-1-[4-(hydroxymethyl)phenyl]ethyl}amino)pyrido[2,3-d]pyrimidin-7(8H)-one]
1590	3060	CC(Nc1ncc2ccc(=O)n(CCF)c2n1)c1ccc(CN2CCC(F)(F)CC2)cc1 (stereo not drawn) [cpd 100, 2-[(1-{4-[(4,4-difluoropiperidin-1-yl)methyl]phenyl}ethyl)amino]-8-(2-fluoroethyl)pyrido[2,3-d]pyrimidin-7(8H)-one]
2800	4320	CCCn1c(=O)ccc2cnc(N[C@@H](C)c3ccc(CN4CCCCCC4)cc3)nc21 [cpd 102, 2-({(1S)-1-[4-(azepan-1-ylmethyl)phenyl]ethyl}amino)-8-propylpyrido[2,3-d]pyrimidin-7(8H)-one]
634	1590	CCCn1c(=O)ccc2cnc(N[C@@H](C)c3ccc(CN4CCN(C(C)=O)CC4)cc3)nc21 [cpd 103, 2-{[(1S)-1-{4-[(4-acetylpiperazin-1-yl)methyl]phenyl}ethyl]amino}-8-propylpyrido[2,3-d]pyrimidin-7(8H)-one]
459	722	C[C@H](Nc1ncc2ccc(=O)n(CC(F)(CF)CF)c2n1)c1ccc(CN2CCC(F)(F)CC2)cc1 [cpd 107, 8-[2,3-difluoro-2-(fluoromethyl)propyl]-2-{[(1S)-1-{4-[(4,4-difluoropiperidin-1-yl)methyl]phenyl)ethyl]amino) pyrido[2,3-d]pyrimidin-7(8H)-one]
307	459	C[C@H](Nc1ncc2ccc(=O)n(CC(C(F)(F)F)C(F)(F)F)c2n1)c1ccc(CN2CCC(F)(F)CC2)cc1 [cpd 108, 2-{[(1S)-1-{4-[(4,4-difluoropiperidin-1-yl)methyl]phenyl)ethyl]amino)-8-[3,3,3-trifluoro-2-(trifluoromethyl)propyl]pyrido[2,3-d]pyrimidin-7(8H)-one]
1420	4040	C[C@H](Nc1ncc2ccc(=O)n(CC(C)(C)C)c2n1)c1ccc(CN2CCCC2)cc1 [cpd 111, 8-(2,2-dimethylpropyl)-2-({(1S)-1-[4-(pyrrolidin-1-ylmethyl)phenyl]ethyl}amino)pyrido[2,3-d]pyrimidin-7(8H)-one]
1910	2370	COCCn1c(=O)ccc2cnc(N[C@@H](C)c3ccc(CN4CCC(F)(F)CC4)cc3)nc21 [cpd 114, 2-{[(1S)-1-{4-[(4,4-difluoropiperidin-1-yl)methyl]phenyl}ethyl]amino}-8-(2-methoxyethyl)pyrido[2,3-d]pyrimidin-7(8H)-one]
825	672	C[C@H](Nc1ncc2ccc(=O)n(Cc3ccc(F)cc3C(F)(F)F)c2n1)c1ccc(CN2CCC(F)(F)CC2)cc1 [cpd 115, 2-{[(1S)-1-{4-[(4,4-difluoropiperidin-1-yl)methyl]phenyl}ethyl]amino}-8-[4-fluoro-2-(trifluoromethyl)benzyl]pyrido[2,3-d]pyrimidin-7(8H)-one]
923	1300	Cc1nc(N[C@@H](C)c2ccc(CN3CCC(F)(F)CC3)cc2)nc2c1ccc(=O)n2CC(C)C [cpd 118]
1160	2230	C[C@H](Nc1ncc2ccc(=O)n(CC(C)(C)O)c2n1)c1ccc(CN2CCC(F)(F)CC2)cc1 [cpd 119, 2-{(S)-1-[4-(4,4-Difluoro-piperidin-1-ylmethyl)-phenyl]-ethylamino}-8-(2-hydroxy-2-methyl-propyl)-8H-pyrido [2,3-d]pyrimidin-7-one]

The remaining lines, values behind:

Structure (SMILES)	IC50 [1] [nM]	IC50 [2] [nM]
C[C@H](Nc1ncc2ccc(=O)n(CC(C)(C)CO)c2n1)c1ccc(CN2CCC(F)(F)CC2)cc1 [cpd 55, 2-{(S)-1-[4-(4,4-Difluoro-piperidin-1-ylmethyl)-phenyl]-ethylamino}-8-(3-hydroxy-2,2-dimethyl-propyl)-8H-pyrido[2,3-d]pyrimidin-7-one]	65	137
C[C@H](Nc1ncc2cc(F)c(=O)n(CC(C)(C)C)c2n1)c1ccc(CN2CCCC(F)(F)C2)cc1 [cpd 57, 2-{(S)-1-[4-(3,3-Difluoro-piperidin-1-ylmethyl)-phenyl]-ethylamino}-8-(2,2-dimethyl-propyl)-6-fluoro-8H-pyrido [2,3-d]pyrimidin-7-one]	208	543
Cc1cc(=O)n(CC(C)(C)C)c2nc(N[C@@H](C)c3ccc(CN4CCCC(F)(F)C4)cc3)ncc12 [cpd 60, 2-{(S)-1-[4-(3,3-Difluoro-piperidin-1-ylmethyl)-phenyl]-ethylamino}-8-(2,2-dimethyl-propyl)-5-methyl-8H-pyrido [2,3-d]pyrimidin-7-one]	139	341
CCOC(=O)C(C)n1c(=O)ccc2cnc(N[C@@H](C)c3ccc(CN4CCCC(F)(F)C4)cc3)nc21 (stereo partly drawn) [cpd 63, ethyl 2-[2-{[(1S)-1-{4-[(3,3-difluoropiperidin-1-yl)methyl]phenyl}ethyl]amino}-7-oxopyrido[2,3-d]pyrimidin-8(7H)-yl]propanoate]	123	290
CC(C#N)n1c(=O)ccc2cnc(N[C@@H](C)c3ccc(CN4CCCC(F)(F)C4)cc3)nc21 (stereo partly drawn) [cpd 64, 2-[2-{[(1S)-1-{4-[(3,3-difluoropiperidin-1-yl)methyl]phenyl}ethyl]amino}-7-oxopyrido[2,3-d]pyrimidin-8(7H)-yl]propanenitrile]	133	210
CC[C@H](Nc1ncc2ccc(=O)n(CC(C)(C)C)c2n1)c1ccccc1 [cpd 70, 8-(2,2-dimethylpropyl)-2-{[(1S)-1-phenylpropyl]amino}pyrido[2,3-d]pyrimidin-7(8H)-one]	177	478
C[C@H](Nc1ncc2ccc(=O)n(Cc3ccc(O)cc3)c2n1)c1ccc(Cl)cc1 [cpd 72, 2-{[(1S)-1-(4-chlorophenyl)ethyl]amino}-8-(4-hydroxybenzyl)pyrido[2,3-d]pyrimidin-7(8H)-one]	1240	2590
C[C@H](Nc1ncc2ccc(=O)n(Cc3c(F)cccc3F)c2n1)c1ccc(C(=O)NC2CCN(C)CC2)cc1 [cpd 76, 4-[(1S)-1-{[8-(2,6-difluorobenzyl)-7-oxo-pyrido[2,3-d]pyrimidin-2-yl]amino}ethyl]-N-(1-methylpiperidin-4-yl)benzamide]	3630	2380
C[C@H](Nc1ncc2ccc(=O)n(Cc3c(F)cccc3F)c2n1)c1ccc(C(=O)NC2CCOCC2)cc1 [cpd 78, 4-[(1S)-1-{[8-(2,6-difluorobenzyl)-7-oxo-pyrido[2,3-d]pyrimidin-2-yl]amino}ethyl]-N-(tetrahydro-2H-pyran-4-yl) benzamide]	1380	896
C[C@H](Nc1ncc2ccc(=O)n(CC(C)(C)C)c2n1)c1ccc(C(=O)NC2CCC(F)(F)CC2)cc1 [cpd 79, N-(4,4-difluorocyclohexyl)-4-[(1S)-1-{[8-(2,2-dimethylpropyl)-7-oxo-pyrido[2,3-d]pyrimidin-2-yl]amino}ethyl]benzamide]	357	529
C[C@H](Nc1ncc2ccc(=O)n(CC(C)(C)C)c2n1)c1ccc(C(=O)NC2CCCC2)cc1 [cpd 80, N-cyclopentyl-4-[(1S)-1-{[8-(2,2-dimethylpropyl)-7-oxo-pyrido[2,3-d]pyrimidin-2-yl]amino}ethyl]benzamide]	282	444
C[C@H](Nc1ncc2ccc(=O)n(CC(C)(C)C)c2n1)c1ccc(C(=O)NC2CCCCC2)cc1 [cpd 81, N-cyclohexyl-4-[(1S)-1-{[8-(2,2-dimethylpropyl)-7-oxo-pyrido[2,3-d]pyrimidin-2-yl]amino}ethyl] benzamide]	172	288
CC(Nc1ncc2ccc(=O)n(CC(C)(C)C)c2n1)c1ccc(C(=O)NC2CCC(F)(F)CC2)c(F)c1 (stereo not drawn) [cpd 84, N-(4,4-difluorocyclohexyl)-4-(1-{[8-(2,2-dimethylpropyl)-7-oxo-pyrido[2,3-d]pyrimidin-2-yl]amino}ethyl)-2-fluorobenzamide]	150	190
C[C@H](Nc1ncc2ccc(=O)n(CC(C)(C)C)c2n1)c1ccc(C(=O)NC2CC(F)(F)C2)cc1 [cpd 85, N-(3,3-difluorocyclobutyl)-4-[(1S)-1-{[8-(2,2-dimethylpropyl)-7-oxo-pyrido[2,3-d]pyrimidin-2-yl]amino}ethyl]benzamide]	1460	1770
C[C@H](Nc1ncc2ccc(=O)n(CC(C)(C)C)c2n1)c1ccc(C(=O)NC2CCC(F)(F)CC2)c(Cl)c1 [cpd 88, 2-chloro-N-(4,4-difluorocyclohexyl)-4-[(1S)-1-{[8-(2,2-dimethylpropyl)-7-oxo-7,8-dihydropyrido[2,3-d]pyrimidin-2-yl]amino}ethyl]benzamide]	97	138
C[C@H](Nc1ncc2ccc(=O)n(CC(C)(C)C)c2n1)c1ccc(CO)c(F)c1 [cpd 90, 8-(2,2-dimethylpropyl)-2-({(1S)-1-[3-fluoro-4-(hydroxymethyl)phenyl]ethyl}amino)pyrido[2,3-d]pyrimidin-7(8H)-one]	391	697
